Data on 4 compounds can be found in patent US6593343B2, “Quinoline derivatives” (Active Biotech AB, priority 1998, dated 2003).

Data set [1] has as its system fetuses of female rats. Description: Teratogenic effects in the rat. Type of data set: in vivo.
The conditions of data set [2]: e.g. a flu-like syndrome; cited from earlier work.
Data set [3] concerns beagle dogs. Description: Beagle Pain Syndrome (BPS). The class given is in vivo, dog. On the procedure: Beagle Pain Syndrome (BPS)
The compounds were administrated intravenously to beagle dogs. The dosage was given for five consecutive days. The dogs were evaluated for clinical and laboratory signs of the pain syndrome, e.g. fever, increased erythrocyte sedimentation rate (ESR), alkaline phosphate (AP), induction of acute phase proteins and vasculitis.

Data set [4] concerns acute experimental autoimmune encephalomyelitis (aEAE). Briefly: Acute experimental autoimmune encephalomyelitis (aEAE) inhibition. The conditions noted are these: at ≧5 mg/kg, mice, treatment control. The class given is in vivo.
In data set [5] the test system is fetuses of female rats. The settings on record: rat, background statement; cited from earlier work.

Take `COc1cccc2c1c(O)c(C(=O)N(C)c1ccc(C(F)(F)F)cc1)c(=O)n2C` [Compound A, N-methyl-N-(4-trifluoromethyl-phenyl)-1,2-dihydro-4-hydroxy-5-methoxy-1-methyl-2-oxo-quinoline-3-carboxamide]: the entries for the “% malformed fetuses” value in data set [1] (6 mg/kg p.o.) and in data set [1] (30 mg/kg p.o.) were 4% and 2%, respectively.

For `CN(C(=O)c1c(O)c2c(Cl)cccc2n(C)c1=O)c1ccc(F)cc1F` [Compound B, N-methyl-N-(2,4-difluoro-phenyl)-1,2-dihydro-4-hydroxy-5-chloro-1-methyl-2-oxo-quinoline-3-carboxamide], the “% malformed fetuses” value in data set [1] (6 mg/kg p.o.) turned out to be 0%.

As to `CN(C(=O)c1c(O)c2c(Cl)cccc2n(C)c1=O)c1ccccc1` [Compound C, N-Methyl-N-phenyl-1,2-dihydro-4-hydroxy-5-chloro-1-methyl-2-oxo-quinoline-3-carboxamide], in data set [1] (6 mg/kg p.o.), the “% malformed fetuses” value stood at 37%.

Consider `CN(C(=O)c1c(O)c2ccccc2n(C)c1=O)c1ccccc1` [Compound D, N-phenyl-N-methyl-1,2-dihydro-4-hydroxy-1-methyl-2-oxo-quinoline-3-carboxamide], for which the “side effects in man (in words)” value in data set [2] is recorded as “dose-limiting side effects”. In addition, the “Beagle Pain Syndrome (in words)” value in data set [3] is “induce the Beagle Pain Syndrome”. Further, the “% malformed fetuses” value in data set [1] (10 mg/kg p.o.) came out at 9%; in data set [1] (30 mg/kg p.o.), 30%. Also, the “inhibition of aEAE” value in data set [4] is “more than 50%”. The “teratogenicity (in words)” value in data set [5] was “teratogenic in the rat”.
